Literature values, collected in patent US20210230662A1, “Methods for the Treatment of Solid Tumor Cancers Using Illudins and Biomarkers” (Lantern Pharma Inc., priority 2018, published 2021).

Key:
tumor cells = conditions: at certain doses
normal cells = conditions: at certain doses

CC1=C(CO)C2=C(C)C3(CC3)[C@@](C)(O)C(=O)C2=C1 [Irofulven, HydroxyMethylAcylfulvene]
susceptibility of tumor cells to dual damaging activity (tumor cells): highly susceptible
response of normal cells to the cell-killing drug (normal cells): marginal response
